Experimental data: ChEMBL document CHEMBL1201862, “PubChem BioAssay data set” (2004)
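All cell lines were grown in 96-well plates and treated with compound for 48 hours. GI50: concentration for 50% inhibition of growth.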 The source made the active and inactive calls. Cut-off read from the data, not from the text of the source: active = GI50 up to about 1.1 µM and inactive = higher.

Tests used:
Test in all cases: growth of human tumour cells (NCI), 48 h
[1] = system: ACHN
[2] = system: HCT-116
[3] = system: NCI-H460
[4] = system: MDA-MB-435
[5] = system: LOX IMVI
[6] = system: NCI-H522
[7] = system: BT-549
[8] = system: PC-3
[9] = system: SF-295
[10] = system: SR
[11] = system: IGROV-1
[12] = system: SK-MEL-28
[13] = system: U-251
[14] = system: MOLT-4
[15] = system: SNB-19
[16] = system: 786-0
[17] = system: HOP-62
[18] = system: NCI-H23
[19] = system: KM12
[20] = system: Hs-578T
[21] = system: CCRF-CEM
[22] = system: MCF7
[23] = system: M14
[24] = system: HCT-15
[25] = system: NCI/ADR-RES
[26] = system: T47D
[27] = system: HOP-92
[28] = system: Malme-3M
[29] = system: CAKI-1
[30] = system: SNB-75
[31] = system: SF-539
[32] = system: UACC-257
[33] = system: SK-MEL-5
[34] = system: SF-268
[35] = system: MDA-MB-231
[36] = system: OVCAR-4
[37] = system: OVCAR-3
[38] = system: UO-31
[39] = system: SK-MEL-2
[40] = system: A549
[41] = system: RXF 393
[42] = system: HT-29
[43] = system: K562
[44] = system: OVCAR-5
[45] = system: DU-145
[46] = system: NCI-H226
[47] = system: SW-620
[48] = system: TK-10
[49] = system: MDA-N
[50] = system: COLO 205
[51] = system: OVCAR-8
[52] = system: HL-60
[53] = system: SK-OV-3
[54] = system: UACC-62
[55] = system: SN12C
[56] = system: EKVX
[57] = system: RPMI-8226
[58] = system: HCC 2998

## Cc1cccc(Nc2nn3c(=O)c4c5c(sc4nc3s2)CCCC5)c1
[1]
  GI50: 7.71 µM (inactive)
[2]
  GI50: 22.9 µM (inactive)
[3]
  GI50: 6.24 µM (inactive)
[4]
  GI50: 7.41 µM (inactive)
[5]
  GI50: 3.33 µM (inactive)
[6]
  GI50: 4.35 µM (inactive)
[7]
  GI50: 25.8 µM (inactive)
[8]
  GI50: 38.7 µM (inactive)
[9]
  GI50: 3.08 µM (inactive)
[10]
  GI50: 25.4 µM (inactive)
[11]
  GI50: 43.4 µM (inactive)
[12]
  GI50: > 100 µM (inactive)
[13]
  GI50: 46.2 µM (inactive)
[14]
  GI50: 48.4 µM (inactive)
[15]
  GI50: > 100 µM (inactive)
[16]
  GI50: 45.9 µM (inactive)
[17]
  GI50: 28.4 µM (inactive)
[18]
  GI50: 14 µM (inactive)
[19]
  GI50: 16.1 µM (inactive)
[20]
  GI50: 6.04 µM (inactive)
[21]
  GI50: 56.5 µM (inactive)
[22]
  GI50: 6.17 µM (inactive)
[23]
  GI50: 3.89 µM (inactive)
[24]
  GI50: 6.41 µM
[25]
  GI50: 11.1 µM (inactive)
[26]
  GI50: 9.82 µM (inactive)
[27]
  GI50: 26.4 µM (inactive)
[28]
  GI50: 3.15 µM (inactive)
[29]
  GI50: 9.93 µM (inactive)
[30]
  GI50: 23.2 µM (inactive)
[31]
  GI50: > 100 µM (inactive)
[32]
  GI50: 21.5 µM (inactive)
[33]
  GI50: 2.4 µM (inactive)
[34]
  GI50: 3.36 µM (inactive)
[35]
  GI50: 8.09 µM (inactive)
[36]
  GI50: 16 µM (inactive)
[37]
  GI50: 25.9 µM (inactive)
[38]
  GI50: > 100 µM (inactive)
[39]
  GI50: > 100 µM (inactive)
[40]
  GI50: 14.8 µM (inactive)
[41]
  GI50: 20.4 µM (inactive)
[42]
  GI50: 10.4 µM (inactive)
[43]
  GI50: 5.09 µM (inactive)
[44]
  GI50: 87.7 µM (inactive)
[45]
  GI50: > 100 µM (inactive)
[46]
  GI50: > 100 µM (inactive)
[47]
  GI50: 91.2 µM (inactive)
[48]
  GI50: 37.7 µM (inactive)
[49]
  GI50: 15 µM (inactive)
[50]
  GI50: 3.69 µM (inactive)
[51]
  GI50: 12.4 µM (inactive)
[52]
  GI50: 23.4 µM (inactive)
[53]
  GI50: 45.8 µM (inactive)
[54]
  GI50: 0.647 µM (active)
[55]
  GI50: 66.7 µM (inactive)

## CCOC(=O)CNc1c(OCc2ccccc2)c(=O)c1=O
[1]
  GI50: > 100 µM (inactive)
[2]
  GI50: > 100 µM (inactive)
[56]
  GI50: > 100 µM (inactive)
[4]
  GI50: > 100 µM (inactive)
[6]
  GI50: > 100 µM (inactive)
[7]
  GI50: > 100 µM (inactive)
[8]
  GI50: > 100 µM (inactive)
[9]
  GI50: > 100 µM (inactive)
[10]
  GI50: > 100 µM (inactive)
[11]
  GI50: > 100 µM (inactive)
[12]
  GI50: > 100 µM (inactive)
[13]
  GI50: > 100 µM (inactive)
[14]
  GI50: > 100 µM (inactive)
[15]
  GI50: > 100 µM (inactive)
[16]
  GI50: > 100 µM (inactive)
[17]
  GI50: > 100 µM (inactive)
[18]
  GI50: > 100 µM (inactive)
[19]
  GI50: > 100 µM (inactive)
[20]
  GI50: > 100 µM (inactive)
[21]
  GI50: > 100 µM (inactive)
[22]
  GI50: > 100 µM (inactive)
[23]
  GI50: > 100 µM (inactive)
[24]
  GI50: > 100 µM
[25]
  GI50: > 100 µM (inactive)
[26]
  GI50: > 100 µM (inactive)
[28]
  GI50: > 100 µM (inactive)
[30]
  GI50: > 100 µM (inactive)
[32]
  GI50: > 100 µM (inactive)
[33]
  GI50: > 100 µM (inactive)
[34]
  GI50: > 100 µM (inactive)
[35]
  GI50: > 100 µM (inactive)
[36]
  GI50: > 100 µM (inactive)
[37]
  GI50: > 100 µM (inactive)
[38]
  GI50: > 100 µM (inactive)
[39]
  GI50: > 100 µM (inactive)
[40]
  GI50: > 100 µM (inactive)
[41]
  GI50: > 100 µM (inactive)
[42]
  GI50: > 100 µM (inactive)
[57]
  GI50: > 100 µM (inactive)
[43]
  GI50: > 100 µM (inactive)
[44]
  GI50: > 100 µM (inactive)
[45]
  GI50: > 100 µM (inactive)
[46]
  GI50: > 100 µM (inactive)
[47]
  GI50: > 100 µM (inactive)
[48]
  GI50: > 100 µM (inactive)
[49]
  GI50: > 100 µM (inactive)
[58]
  GI50: > 100 µM (inactive)
[50]
  GI50: > 100 µM (inactive)
[51]
  GI50: > 100 µM (inactive)
[53]
  GI50: > 100 µM (inactive)
[54]
  GI50: > 100 µM (inactive)
[55]
  GI50: > 100 µM (inactive)

## CCOC(=O)c1c(O)nc2cccc3c2c1-c1cccnc1S3
[1]
  GI50: 28.8 µM (inactive)
[2]
  GI50: 44.5 µM (inactive)
[56]
  GI50: 30.3 µM (inactive)
[3]
  GI50: 24.4 µM (inactive)
[4]
  GI50: 28.8 µM (inactive)
[5]
  GI50: 25.1 µM (inactive)
[6]
  GI50: 25.8 µM (inactive)
[7]
  GI50: 22.4 µM (inactive)
[8]
  GI50: 15.8 µM (inactive)
[9]
  GI50: 23.7 µM (inactive)
[10]
  GI50: 28.6 µM (inactive)
[11]
  GI50: 16.9 µM (inactive)
[12]
  GI50: 30.8 µM (inactive)
[13]
  GI50: 21.3 µM (inactive)
[14]
  GI50: 16.9 µM (inactive)
[15]
  GI50: 33.8 µM (inactive)
[16]
  GI50: 36 µM (inactive)
[17]
  GI50: 25.5 µM (inactive)
[18]
  GI50: 21 µM (inactive)
[20]
  GI50: 22.4 µM (inactive)
[21]
  GI50: 24 µM (inactive)
[22]
  GI50: 1.14 µM (inactive)
[23]
  GI50: 32.7 µM (inactive)
[24]
  GI50: 35.8 µM
[25]
  GI50: 33.1 µM (inactive)
[26]
  GI50: 9.86 µM (inactive)
[28]
  GI50: 34 µM (inactive)
[29]
  GI50: 16.7 µM (inactive)
[30]
  GI50: 21.2 µM (inactive)
[31]
  GI50: 27.6 µM (inactive)
[32]
  GI50: 37.6 µM (inactive)
[33]
  GI50: 11.7 µM (inactive)
[34]
  GI50: 28.8 µM (inactive)
[35]
  GI50: 39 µM (inactive)
[36]
  GI50: 33.1 µM (inactive)
[37]
  GI50: 28.6 µM (inactive)
[38]
  GI50: 23 µM (inactive)
[39]
  GI50: 56.1 µM (inactive)
[40]
  GI50: 18.9 µM (inactive)
[41]
  GI50: 11 µM (inactive)
[42]
  GI50: 29.4 µM (inactive)
[57]
  GI50: 17.5 µM (inactive)
[43]
  GI50: 32.1 µM (inactive)
[44]
  GI50: 24 µM (inactive)
[45]
  GI50: 44.6 µM (inactive)
[46]
  GI50: 19.9 µM (inactive)
[47]
  GI50: 55.3 µM (inactive)
[48]
  GI50: 44.7 µM (inactive)
[49]
  GI50: 39 µM (inactive)
[58]
  GI50: 50.2 µM (inactive)
[50]
  GI50: 35.9 µM (inactive)
[51]
  GI50: 35.5 µM (inactive)
[52]
  GI50: 20.3 µM (inactive)
[53]
  GI50: 30.9 µM (inactive)
[54]
  GI50: 16.3 µM (inactive)
[55]
  GI50: 39.9 µM (inactive)
